# From PubChem BioAssay AID248 (DTP/NCI, 2004)
# Several values for one entry are separate records, joined by “and”; a condition that tells them apart may be missing. Identical values can stand only once. Inconclusive results and toxic doses are left out.
# System: L1210 leukemia ip in BDF1 mice, survival T/C
# Experiment: NCI In Vivo Anticancer Drug Screen. Data for tumor model L1210 Leukemia (intraperitoneal) in B6D2F1 (BDF1) mice
# Conditions: endpoint: mean survival time, higher = longer survival
# Procedure, shortened: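 Transplantable tumor model; survival measured in treated vs vehicle control mice. Value = treated/control.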
# [1] = dose: 100.0 mg/kg/injection, schedule: Q01DX001 (ip), vehicle: carboxymethylcellulose (CMC)
# [2] = dose: 200.0 mg/kg/injection, schedule: Q01DX001 (ip), vehicle: carboxymethylcellulose (CMC)
# [3] = dose: 400.0 mg/kg/injection, schedule: Q01DX001 (ip), vehicle: carboxymethylcellulose (CMC)
# [4] = dose: 100.0 mg/kg/injection, schedule: Q04DX003 (ip), vehicle: saline with Tween-80
# [5] = dose: 200.0 mg/kg/injection, schedule: Q04DX003 (ip), vehicle: saline with Tween-80
# [6] = dose: 400.0 mg/kg/injection, schedule: Q04DX003 (ip), vehicle: saline with Tween-80
# [7] = dose: 50.0 mg/kg/injection, schedule: Q01DX001 (ip), vehicle: saline
# [8] = dose: 100.0 mg/kg/injection, schedule: Q01DX001 (ip), vehicle: saline
# [9] = dose: 200.0 mg/kg/injection, schedule: Q01DX001 (ip), vehicle: saline
# [10] = dose: 400.0 mg/kg/injection, schedule: Q01DX001 (ip), vehicle: saline
# [11] = dose: 100.0 mg/kg/injection, schedule: Q01DX001 (ip), vehicle: saline with Tween-80
# [12] = dose: 50.0 mg/kg/injection, schedule: Q01DX009 (ip), vehicle: Klucel (hydroxypropylcellulose) (HPC)
# [13] = dose: 100.0 mg/kg/injection, schedule: Q01DX009 (ip), vehicle: Klucel (hydroxypropylcellulose) (HPC)
# [14] = dose: 100.0 mg/kg/injection, schedule: Q01DX001 (ip), vehicle: Klucel (hydroxypropylcellulose) (HPC)
# [15] = dose: 200.0 mg/kg/injection, schedule: Q01DX001 (ip), vehicle: Klucel (hydroxypropylcellulose) (HPC)
# [16] = dose: 400.0 mg/kg/injection, schedule: Q01DX001 (ip), vehicle: Klucel (hydroxypropylcellulose) (HPC)
# [17] = dose: 100.0 mg/kg/injection, schedule: Q01DX009 (ip), vehicle: saline with Tween-80
smiles,measurement,setting,value
CCCCC(=O)N1CC(C)OC(C)C1 (configuration not stated),T/C,[1],97 % of control
same,T/C,"dose: 100.0 mg/kg/injection, schedule: Q01DX009 (ip), vehicle: carboxymethylcellulose (CMC)",96 % of control
same,T/C,"dose: 100.0 mg/kg/injection, schedule: Q04DX002 (ip), vehicle: carboxymethylcellulose (CMC)",102 % of control
same,T/C,"dose: 100.0 mg/kg/injection, schedule: Q04DX003 (ip), vehicle: carboxymethylcellulose (CMC)",102 % of control
same,T/C,[2],102 % of control
same,T/C,"dose: 200.0 mg/kg/injection, schedule: Q01DX009 (ip), vehicle: carboxymethylcellulose (CMC)",94 % of control and 104 % of control
same,T/C,"dose: 200.0 mg/kg/injection, schedule: Q04DX002 (ip), vehicle: carboxymethylcellulose (CMC)",98 % of control
same,T/C,"dose: 200.0 mg/kg/injection, schedule: Q04DX003 (ip), vehicle: carboxymethylcellulose (CMC)",102 % of control
same,T/C,[3],106 % of control
same,T/C,"dose: 400.0 mg/kg/injection, schedule: Q01DX009 (ip), vehicle: carboxymethylcellulose (CMC)",94 % of control and 98 % of control
same,T/C,"dose: 400.0 mg/kg/injection, schedule: Q04DX002 (ip), vehicle: carboxymethylcellulose (CMC)",105 % of control
same,T/C,"dose: 400.0 mg/kg/injection, schedule: Q04DX003 (ip), vehicle: carboxymethylcellulose (CMC)",96 % of control
CN=C(NC1CCCCC1)c1ccc(NC(=O)c2ccc(C(=O)Nc3ccc(C(=NC)NC4CCCCC4)cc3)cc2)cc1,T/C,"dose: 1.88 mg/kg/injection, schedule: Q01DX Z (ip), vehicle: saline",102 % of control
same,T/C,"dose: 3.75 mg/kg/injection, schedule: Q01DX Z (ip), vehicle: saline",100 % of control
same,T/C,"dose: 7.5 mg/kg/injection, schedule: Q01DX Z (ip), vehicle: saline",102 % of control
Oc1ccc(Nc2ncnc3nc[nH]c23)cc1O,T/C,[4],101 % of control
same,T/C,[5],89 % of control
same,T/C,[6],100 % of control
CCOC(=O)n1cnc2nc(N)nc(Cl)c21,T/C,[7],103 % of control
same,T/C,[8],105 % of control
same,T/C,[9],100 % of control
same,T/C,[10],122 % of control
c1ccc2[nH]c(-c3c[nH]c4ccccc34)cc2c1,T/C,[7],106 % of control
same,T/C,[8],102 % of control
same,T/C,[9],106 % of control
CS(=O)(=O)c1nc(Cl)c(Cl)[nH]1,T/C,[11],100 % of control
same,T/C,"dose: 200.0 mg/kg/injection, schedule: Q01DX001 (ip), vehicle: saline with Tween-80",102 % of control
same,T/C,"dose: 400.0 mg/kg/injection, schedule: Q01DX001 (ip), vehicle: saline with Tween-80",104 % of control
CC(C)(C)N(Cc1ccccc1)Cc1ccccc1,T/C,[4],96 % of control
same,T/C,[5],98 % of control
same,T/C,[6],96 % of control
CCC1(N)COC(c2ccccc2)OC1 (configuration not stated),T/C,[12],109 % of control
same,T/C,[13],88 % of control
CCCCCCCCCCCCc1ccc(/C(C)=N/NC(=O)c2ccc[n+](C)c2)cc1,T/C,[11],93 % of control
CCOC(=O)C(Br)c1cccc(OC)c1 (configuration not stated),T/C,"dose: 100.0 mg/kg/injection, schedule: Q01DX009 (ip), vehicle: saline sonified",107 % of control
same,T/C,"dose: 100.0 mg/kg/injection, schedule: Q04DX003 (ip), vehicle: saline sonified",117 % of control
same,T/C,"dose: 132.0 mg/kg/injection, schedule: Q04DX003 (ip), vehicle: saline sonified",104 % of control
same,T/C,"dose: 200.0 mg/kg/injection, schedule: Q01DX009 (ip), vehicle: saline sonified",96 % of control
same,T/C,"dose: 200.0 mg/kg/injection, schedule: Q04DX003 (ip), vehicle: saline sonified",96 % of control
same,T/C,"dose: 300.0 mg/kg/injection, schedule: Q04DX003 (ip), vehicle: saline sonified",89 % of control
same,T/C,"dose: 400.0 mg/kg/injection, schedule: Q01DX009 (ip), vehicle: saline sonified",98 % of control
same,T/C,"dose: 400.0 mg/kg/injection, schedule: Q04DX003 (ip), vehicle: saline sonified",106 % of control
NC(Cc1cnc(N=Nc2ccc(S(=O)(=O)N(CCCl)CCCl)cc2)[nH]1)C(=O)O (configuration not stated),T/C,[12],93 % of control
same,T/C,[13],90 % of control
same,T/C,"dose: 200.0 mg/kg/injection, schedule: Q01DX009 (ip), vehicle: Klucel (hydroxypropylcellulose) (HPC)",97 % of control
O=C(O)/C=C\C(=O)Nc1nc(NC(=O)/C=C/C(=O)O)cc(=O)[nH]1,T/C,[8],97 % of control
same,T/C,[9],100 % of control
same,T/C,[10],103 % of control
COC(=O)c1cn2c(c1C(=O)OC)CCC2,T/C,"dose: 12.5 mg/kg/injection, schedule: Q01DX009 (ip), vehicle: other",93 % of control
same,T/C,"dose: 25.0 mg/kg/injection, schedule: Q01DX009 (ip), vehicle: other",96 % of control
same,T/C,"dose: 50.0 mg/kg/injection, schedule: Q01DX009 (ip), vehicle: other",222 % of control
same,T/C,"dose: 59.0 mg/kg/injection, schedule: Q01DX009 (ip), vehicle: other",94 % of control and 113 % of control
same,T/C,"dose: 89.0 mg/kg/injection, schedule: Q01DX009 (ip), vehicle: other",99 % of control and 102 % of control
same,T/C,"dose: 100.0 mg/kg/injection, schedule: Q01DX009 (ip), vehicle: other",459 % of control
same,T/C,"dose: 133.0 mg/kg/injection, schedule: Q01DX009 (ip), vehicle: other",93 % of control and 106 % of control
same,T/C,"dose: 300.0 mg/kg/injection, schedule: Q01DX009 (ip), vehicle: other",116 % of control
c1ccc(CNc2nccs2)cc1,T/C,"dose: 75.0 mg/kg/injection, schedule: Q01DX001 (ip), vehicle: carboxymethylcellulose (CMC)",96 % of control
same,T/C,"dose: 150.0 mg/kg/injection, schedule: Q01DX001 (ip), vehicle: carboxymethylcellulose (CMC)",91 % of control
same,T/C,"dose: 300.0 mg/kg/injection, schedule: Q01DX001 (ip), vehicle: carboxymethylcellulose (CMC)",95 % of control
CC(CN(C)C)CN1c2ccccc2Sc2ccc(C(F)(F)F)cc21 (configuration not stated),T/C,"dose: 0.78 mg/kg/injection, schedule: Q04DX003 (ip), vehicle: saline",108 % of control
same,T/C,"dose: 1.56 mg/kg/injection, schedule: Q01DX009 (ip), vehicle: saline",111 % of control
same,T/C,"dose: 1.56 mg/kg/injection, schedule: Q04DX003 (ip), vehicle: saline",96 % of control
same,T/C,"dose: 3.12 mg/kg/injection, schedule: Q01DX009 (ip), vehicle: saline",104 % of control
same,T/C,"dose: 3.12 mg/kg/injection, schedule: Q04DX003 (ip), vehicle: saline",105 % of control
same,T/C,"dose: 6.25 mg/kg/injection, schedule: Q01DX009 (ip), vehicle: saline",105 % of control
same,T/C,"dose: 6.25 mg/kg/injection, schedule: Q04DX003 (ip), vehicle: saline",97 % of control
same,T/C,"dose: 12.5 mg/kg/injection, schedule: Q01DX009 (ip), vehicle: saline",109 % of control
same,T/C,"dose: 12.5 mg/kg/injection, schedule: Q04DX003 (ip), vehicle: saline",105 % of control
same,T/C,"dose: 25.0 mg/kg/injection, schedule: Q04DX003 (ip), vehicle: saline",109 % of control
CCOC(=O)C(NC(=O)c1cc2sccc2[nH]1)C(=O)OCC,T/C,[14],96 % of control
same,T/C,[15],96 % of control
same,T/C,[16],98 % of control
CC(C)(CBr)COS(=O)(=O)c1ccc(Br)cc1,T/C,"dose: 50.0 mg/kg/injection, schedule: Q01DX009 (ip), vehicle: saline with Tween-80",89 % of control
same,T/C,[17],91 % of control
O=C(N/N=C/c1[nH]c(=S)[nH]c(=O)c1Cc1ccc(Cl)cc1)c1ccncc1,T/C,[14],104 % of control
same,T/C,[15],101 % of control
same,T/C,[16],98 % of control
O=C1Nc2ccccc2C12CNCS2 (configuration not stated),T/C,"dose: 75.0 mg/kg/injection, schedule: Q01DX001 (ip), vehicle: saline",104 % of control
same,T/C,"dose: 150.0 mg/kg/injection, schedule: Q01DX001 (ip), vehicle: saline",98 % of control
same,T/C,"dose: 300.0 mg/kg/injection, schedule: Q01DX001 (ip), vehicle: saline",95 % of control
CSc1ccc(C(CNC(C)=O)C(C#N)C#N)cc1 (configuration not stated),T/C,[8],101 % of control
same,T/C,[9],103 % of control
same,T/C,[10],89 % of control
CC(NC(=O)CNC(=O)c1cnc2ccccc2n1)C(=O)O (configuration not stated),T/C,[8],100 % of control
same,T/C,[9],101 % of control
same,T/C,[10],94 % of control
CN(C)c1ccc(/C=C2/CCCC/C2=N/O)cc1,T/C,[17],98 % of control
same,T/C,"dose: 200.0 mg/kg/injection, schedule: Q01DX009 (ip), vehicle: saline with Tween-80",92 % of control
same,T/C,"dose: 400.0 mg/kg/injection, schedule: Q01DX009 (ip), vehicle: saline with Tween-80",88 % of control
CC1c2nc(N)nc(N)c2CN1C(=O)c1ccccc1 (configuration not stated),T/C,[1],98 % of control
same,T/C,[2],98 % of control
same,T/C,[3],97 % of control
